{"source": "patent EP0279688B1", "about": "“Methods and compositions for the use of HIV env polypeptides and antibodies thereto” (GENENTECH, INC., priority 1987, dated 1988)", "origin": "cited, not measured here", "tested_on": "viral replication", "settings": "Mitsuya and Broder, 1985", "data": [{"molecule": "Nc1ccn([C@H]2CC[C@@H](CO)O2)c(=O)n1", "note": "[DDC]", "values": [{"measurement": "concentrations inhibiting viral replication", "result": "50-500 µm"}]}, {"molecule": "Cc1cn([C@H]2C[C@H](N=[N+]=[N-])[C@@H](CO)O2)c(=O)[nH]c1=O", "note": "[AZT]", "values": [{"measurement": "concentrations inhibiting viral replication", "result": "50-500 µm"}]}]}
